One series has as its system spleen lymphocytes. Put plainly: Detection of cell viability (CCK-8) of spleen lymphocytes. In kind it is cell-based, mouse. The following applies: 64, 32, 16, 8, 4, and 2 μM; 60 h incubation; compared with the control group. On the procedure:
(§1) 3.2.1 Cell acquisition: BABL/C male mice ere sacrificed after eyeball extraction and bloodletting, soaked in 75% ethanol for 10 mint, and the spleen was aseptically removed in an ultra-clean workbench, and placed in a petri dish filled with PBS. A syringe was used to absorb PBS to rinse the surface and interior of the spleen until the spleen turned white, then the spleen was gently torn up with tweezers. The spleen was gently crushed with a 5 mL syringe on the steel mesh to make a single-cell suspension, which was filtered through a 200-mesh sieve. The filtrate was centrifuged for 10 min (1000 rpm/min); after centrifugation, the supertnatant was discarded. After the cell pellet was resuspended with PBS, the mixture was centrifuged again for 10 min (1000 rpm/min), and the operation was repeated once; 2 mL of erythrocyte lysate was added to the cell pellet. After the mixture was mixed evenly and allowed to stand for 5 min, 8 mL of PBS was added to nx evenly, and then the mixture was centrifuged at 1000 rpm min for 5 min. After centrifugation, the supernatant was discarded, the cell pellet was resuspended with PBS, then the mixture was centrifuged again for 10 min (1000 rpm/min), and the operation was repeated once; after centrifugation, the supematant ias discarded, the cell pellet was suspended in 1 mL of RPMI-1640 complete medium (containing 10% fetal bovine serum and 1% double antibody). 2-3 mL medium was added to dilute. A cell counter was used for cell counting (new cell type), and complete medium was used to adjust the cell concentration to 2*10^6 cells/mL.
(§2) 3.2.2 Stunple preparation: appropriate amount of compounds 1, 2, 3, and 4 were dissolved in DMSO respectively to prepare 64 mM mother solution, and then diluted with medium to obtain solutions with a concentration of 128 μM respectively, and then gradiently diluted with medium to obtain sample dilutions with concentrations of 64 μM, 32 μM, 16 μM, 8 μM, and 4 μM, respectively.
3.2.3 Detection of cell viability: the prepared cell suspension was added to a 96-well plate. The seeding cell density was 2*10^5 cells/well, and the added cell volume was 100 μL. Compounds 1, 2, 3, and 4 were added at 100 μL/well, with 5 replicate wells for each concentration, and then incubated in a 37° C. 5% CO2 incubator for 60 h, and then incubated in a 37° C. incubator for 4-5 hours with serum-free medium and 10% CCK-8. The absorbance (A) value of each well was detected at 450 nm by a inicroplate reader. […]
3.2.5 Data processing: the proliferation rate (viability) of the sample to spleen hymphocytes was calculated according to the following formula:
Proliferation rate %=[As/Ac]×100% • As: Absorbance of sample group (spleen lymphocytes+samples to be tested+CCK-8) • Ac: Absorbance of control group (spleen lymphocytes+CCK-8)

Series [1] concerns spleen lymphocytes induced by Con A. In words: Detection of cell proliferation inhibition: Con A-induced spleen lymphocyte proliferation (CCK-8). The following applies: Mus musculus; for inhibition at 2 µM: concentration 2 μM; for inhibition at 2 µM / inhibition at 4 µM / inhibition at 8 µM / inhibition at 16 µM / inhibition at 32 µM / inhibition at 64 µM: read-out: Inhibitory rate (%) on the proliferation of spleen lymphocytes induced by Con A; for inhibition at 4 µM: concentration 4 μM; for inhibition at 8 µM: concentration 8 μM; for inhibition at 16 µM: concentration 16 μM; for inhibition at 32 µM: concentration 32 μM; for inhibition at 64 µM: concentration 64 μM; for IC50: linear fit of inhibition rate against log concentration, ConA final 7.5 μg/mL, 48 h. It is filed as cell-based. On the procedure: as §1, §2
3.2.4 Detection of cell proliferation inhibition: the prepared cell suspension was added to the 96-well plate. The seeding cell density was 2*10^5 cells/well, and the added cell volume was 100 μL. Samples were added at 100 μL, with 5 replicate wells for each concentration, and then incubated in a 37° C., 5% CO2 incubator for 12 h. 10 μL of the supernatant were carefully suck out. 10 μL ConA with a concentration of 150 μg/mL (final concentration: 7.5 μg/mL) was added to the corresponding group, and then the mixture was incubated in a 37° C., 5% CO2 incubator for 48 h, and finally incubated in a 37° C. incubator for 4-5 hours with serum-free medium and 10% CCK-8. The absorbance (A) value of each well was detected at 450 nm by a microplate reader. A negative control group and a model control group were set up, which were cells+1640 medium, cells+ConA+1640 medium, respectively.
The proliferation inhibition rate of the sample to spleen lymphocytes was calculated according to the following formula:
Proliferation inhibition rate %=[(Am−As)/(Am−Ac)]×100% • Am: Absorbance of model control group (spleen lymphocytes+ConA+CCK-8) • As: Absorbance of sample group (spleen lymphocytes+samples to be tested+ConA+CCK-8) • Ac: Absorbance of negative control group (spleen lymphocytes+CCK-8)
The experimental results of compounds 1. 2, 3.

As to `CCCCCCCCCCCCC/C=C/[C@@H](O)C(=O)N[C@@H](CO[C@@H]1O[C@H](CO)[C@@H](O)[C@H](O)[C@H]1O)[C@H](O)/C=C/CC/C=C(\C)CCCCCCCCC` [Compound 1], in the series on spleen lymphocytes, the “cytotoxic effect on spleen lymphocytes” value is listed as “no cytotoxic effect”. For the same compound, in series [1], the inhibition at 2 µM was determined as 130%, the inhibition at 4 µM was 136%, the inhibition at 8 µM amounted to 146% and the inhibition at 16 µM was found to be 150%. In series [1], the inhibition at 32 µM amounted to 148%, the inhibition at 64 µM came to 152% and it took 4 µM to reach half-maximal inhibition (IC50).
Consider `CCCCCCCCCCCCCCCC(=O)N[C@@H](CO[C@@H]1O[C@H](CO)[C@@H](O)[C@H](O)[C@H]1O)[C@H](O)/C=C/CC/C=C(\C)CCCCCCCCC` [Compound 4], for which the “cytotoxic effect on spleen lymphocytes” value in the series with spleen lymphocytes is recorded as “no cytotoxic effect”. Further, in series [1], the inhibition at 2 µM worked out at 72.2%, the inhibition at 4 µM came out at 70.7%, the inhibition at 8 µM was found to be 100% and the inhibition at 16 µM was determined as 102%. Besides, in series [1], the inhibition at 32 µM came out at 120%; the inhibition at 64 µM was determined as 120%; the midpoint of inhibition, the IC50, lay at 1.5 µM.
In the case of `CCCCCCCCCCC/C=C/[C@@H](O)C(=O)N[C@@H](CO[C@@H]1O[C@H](CO)[C@@H](O)[C@H](O)[C@H]1O)[C@H](O)/C=C/CC/C=C(\C)CCCCCCCCC` [Compound 2], in the series on spleen lymphocytes, the “cytotoxic effect on spleen lymphocytes” value is “no cytotoxic effect”. Moreover, in series [1], the inhibition at 2 µM is 43.7%, the inhibition at 4 µM came to 54.3%, the inhibition at 8 µM worked out at 77.7% and the inhibition at 16 µM worked out at 100%. In series [1], the inhibition at 32 µM is 126%, the inhibition at 64 µM amounted to 140% and the half-maximal inhibitory concentration (IC50) turned out to be 10.4 µM.
Turning to `CCCCCCCCC/C=C/CC/C=C/[C@@H](O)[C@H](CO[C@@H]1O[C@H](CO)[C@@H](O)[C@H](O)[C@H]1O)NC(=O)[C@H](O)/C=C/CCCCCCCCCCCC` [Compound 3], the “cytotoxic effect on spleen lymphocytes” value in the series on spleen lymphocytes is given as “no cytotoxic effect”. Moreover, in series [1], the inhibition at 2 µM amounted to 4.5%, the inhibition at 4 µM turned out to be 30.9%, the inhibition at 8 µM came out at 37.4% and the inhibition at 16 µM came out at 52%. Also, in series [1], the inhibition at 32 µM was determined as 84.2%, the inhibition at 64 µM came to 123% and half-maximal inhibition (IC50) was put at 19.5 µM.

For orientation: IC50 means the concentration at which inhibition is half-maximal. A high value points to weaker potency in that assay.

The values are drawn from patent publication US20240150387A1, “GLUCOCEREBROSIDE COMPOUND, PHARMACEUTICAL COMPOSITION THEREOF AND USE THEREOF” (DONGGUAN HEC CORDYCEPS R&D CO., LTD., priority 2021, published 2024).
